{
  "source": "paper PMC6571673",
  "about": "“Cytostatic and Cytotoxic Natural Products against Cancer Cell Models” (Molecules, 2019)",
  "assay_type_in_all_cases": "cell-based, human",
  "key": {"KOPN-8": {"system": "KOPN-8", "test": "Annexin V/PI apoptosis flow cytometry assay", "conditions": "KOPN-8, 24 h; 8 5 µM, 9 10 µM, 10 5 µM, 12 10 µM, 13 10 µM", "protocol": "(§1) The samples were probed with AnnexinV-FITC (Roche/Boehringer Mannheim, Indianapolis, IN, USA) according to the manufacturer’s instructions. KOPN-8 or SUB-P15 cells were plated (1.00 × 10^6 cells/plate) and incubated for 12 h and incubated at 37 °C. Then, cells were treated with compounds or controls for 24 h. Cells were stained with AnnexinV-FITC, PI and the staining profiles were determined with FACScan and Cell-Quest software. For cellular DNA content, the same cell treatment as above was performed. Then, cells were fixed in cold 75% ethanol, treated with RNase and then stained with PI solution (50 µg/mL). Cell cycle distribution was analyzed with the FACSCalibur analyzer (BD Biosciences, Franklin Lakes, NJ, USA) and Cell-Quest software. The percentage of DNA content at different phases of the cell cycle was analyzed with ModFit-software (version 5.0, Verity Software House, Topsham, ME, USA)."}, "SUP-B15": {"system": "SUP-B15", "test": "Annexin V/PI apoptosis flow cytometry assay", "conditions": "SUP-B15, 24 h; 8 5 µM, 9 10 µM, 10 5 µM, 12 10 µM, 13 10 µM", "protocol": "as §1"}, "[1]": {"system": "de novo protein synthesis in MDA-MB-231", "test": "EZClick in-cell-click de novo protein synthesis assay", "conditions": "MDA-MB-231, 2 h exposure time", "excerpt": "Protein synthesis is essential in cell growth, proliferation, signaling, differentiation, and death. […] The assay includes a robust chemical method based on an alkyne containing o-propargyl-puromycin probe, which stops translation by forming covalent conjugates with nascent polypeptide chains. Truncated polypeptides are rapidly turned over by the proteasome and can be detected based on the subsequent click reaction with a fluorescent azide. To test whether these compounds (4–14) induced de novo protein synthesis inhibition, compounds were tested for a 2 h exposure time, under the same conditions as the known protein synthesis inhibitor cycloheximide (CHX) in MDA-MB-231 cell model following an in-cell-click de novo protein synthesis assay.\nBiovision’s EZClick™ protein synthesis monitoring assay kit (EZClick™ Global Protein Synthesis Assay Kit, Catalog # K715-100, Milpitas, CA, USA) was used according to manufacturer’s protocol. The assay was conducted in 8-well chambered coverslips (ibidi GmbH µ-slide # 80826, Martinsried, Germany). Cells were plated at 2 × 10^4 per well and incubated at 37 °C for 12 h. Then, the cells were treated with compounds for 1.5 h and processed and stained according to protocol (representative images shown in Figure 4). Protein synthesis activity is shown in red, DNA staining is shown in green. Cycloheximide (CHX) was used as a positive control and DMSO as the negative control. Images shown were taken with a Marianas CSU-X spinning disk confocal imaging system (3i, Denver, CO, USA) configured with a Zeiss Axio Observer microscope (Carl Zeiss Inc., Thornwood, NY, USA) with diode lasers, at 63× magnification and resolution of 512 × 512 pixels (3i). For each field of view, an image stack consisting of 20 optical sections were taken at 63× magnification. The total intensity of red and green staining was quantified for the entire image stack. Six fields of view were analyzed per condition. Images shown represent a single optical section for each field of view. For each stack, the red intensity (protein synthesis) was adjusted to the green intensity (DNA content) in each image. The numbers from six images were used to calculate the average and standard deviation for each condition. Numbers were normalized to the negative control value arbitrarily set to one. The Slide viewer 6 software package was used for rendering and analysis of the images."}},
  "data": [
    {"smiles": "COC1=C[C@]23CCCN2CCc2cc4c(cc2[C@@H]3[C@@H]1O)OCO4", "note": "[Compound 9, cephalotaxine]", "values": [
      {"measurement": "live cells (Annexin-, PI-)", "setting": "KOPN-8", "result": "small decrease in live cells"},
      {"measurement": "live cells (Annexin-, PI-)", "setting": "SUP-B15", "result": "small decrease in live cells"},
      {"measurement": "concentration at which de novo protein synthesis is inhibited", "setting": "[1]", "result": 10, "unit": "µM"}
    ]}
  ]
}
